Reference: patent US9486536B2 (Immunomedics, Inc., priority 2013, dated 2016)

How the values were obtained:
[1] = test system: triple-negative breast cancer; assay: treatment of triple-negative breast cancer patients; type: in vivo, human
Procedure: P2PDox-hRS7 ADC is prepared as described in Examples 1 and 3 above. Patients with triple-negative breast cancer who had failed at least two standard therapies receive 3 cycles of 70 mg P2PDox-hRS7 injected i.v. every 3 weeks. Objective responses are observed at this dose level of P2PDox-hRS7, with an average decrease in tumor volume of 35%, after two cycles of therapy. All serum samples evaluated for human anti-hRS7 antibody (HAHA) are negative.

[2] = test system: NCI-N87 gastric carcinoma cells; assay: cell binding, conjugate vs unconjugated antibody; design: species or system human; conditions: 6 molecules of P2PDox per antibody (not shown)
[3] = test system: NCI-N87 human gastric carcinoma xenografts; assay: therapy of NCI-N87 xenografts in nude mice; type: in vivo; conditions: for mean tumor volume (mTV) on day 21: starting mTV 0.256 cm^3
Procedure: FIG. 3A. Therapy in nude mice bearing s.c. human tumor xenografts using 2.25 mg/kg protein dose (0.064 mg/kg of drug dose) of MAb-P2PDox conjugates twice weekly×2 weeks in nude mice (n=7) with NCI-N87 human gastric carcinoma xenografts.
Tumor size was determined by caliper measurements of length (L) and width (W) with tumor volume calculated as (L×W^2)/2. Tumors were measured and mice weighed twice a week. Mice were euthanized if their tumors reached >1 cm^3 in size, lost greater than 15% of their starting body weight, or otherwise became moribund. Statistical analysis for the tumor growth data was based on area under the curve (AUC) and survival time. Profiles of individual tumor growth were obtained through linear curve modeling. An f-test was employed to determine equality of variance between groups prior to statistical analysis of growth curves. A two-tailed t-test was used to assess statistical significance between all the various treatment groups and non-specific controls. For the saline control analysis a one-tailed t-test was used to assess significance. Survival studies were analyzed using Kaplan-Meier plots (log-rank analysis), using the Prism GraphPad Software (v4.03) software package (Advanced Graphics Software, Inc.; Encinitas, Calif.). All doses in preclinical experiments are expressed in antibody amounts. In terms of drug, 100 μg of antibody (5 mg/kg) in a 20-g mouse, for example, carries 1.4 μg-2.8 μg ([…]) of P2PDox equivalent dose when using an ADC with 3-6 drugs/IgG.
Using this dosing regimen, we examined the therapeutic effect of hRS7-P2PDox in 2 human tumor xenograft models, Capan-1 (pancreatic cancer) and NCI-N87 (gastric cancer). Therapy began 7 days after tumor transplantation in nude mice.
Anti-TROP-2 antibody conjugate, hRS7-P2PDox, was evaluated in nude mice bearing NCI-N87 human gastric cancer xenografts by administering a single bolus protein dose of 9 mg/kg, 6.75 mg/kg, 4.5 mg/kg, 2.25 mg/kg, or 1 mg/kg. The therapy was started when the mean tumor volume (mTV) was 0.256 cm^3.
Further in vivo efficacy studies were performed in nude mice implanted with NCI-N87 human gastric cancer xenografts (FIG. 13A-F).
The effect of varying dosage schedule on anti-tumor efficacy was examined (FIG. 14, FIG. 19A-G). The experiment began 9 days after tumor implantation when mean tumor volume for all groups was 0.383 cm^3, and ended on day 93 (84 days after initiation of therapy).

[4] = test system: MDA-MB-468, AG S, NCI-N87 and Capan-1 solid tumor cell lines; assay: cytotoxicity of P2PDox-mAb conjugates to target cells; type: cell-based, human; conditions: not shown
Excerpt: The cytotoxicity of P2PDox-mAb conjugates to target cells was examined. hRS7-P2PDox and hMN-15-P2PDox were cytotoxic to MDA-MB-468, AG S, NCI-N87 and Capan-1 solid tumor cell lines (not shown). hMN-14-P2PDox was cytotoxic to Capan-1, BxPC-3 and AsPC-1 human pancreatic tumor lines and AGS, NCI-N87 and LS147T human gastric and colonic tumor lines (not shown). hLL2-P2PDOx was cytotoxic to Daudi, Raji, Ramos and JVM-3 hematopoietic tumor lines (not shown). IC50 values for the conjugates were in the nanomolar concentration range (not shown).

## hRS7-P2PDox
[1]; 70 mg i.v. every 3 weeks, after two cycles of therapy
  average decrease in tumor volume: 35%
[1]; human, in vivo
  human anti-hRS7 antibody (HAHA) in serum samples: negative
[2]
  binding of the antibody moiety vs unconjugated hRS7: No significant difference in binding
[3]; 45 μg q4dx4
  mice alive at day 94: 8 of 9
[3]; 90 μg weekly×2
  mice alive at day 94: 9 of 9
[3]; 2nd course administered after day 70
  effect of 2nd course of therapy: safely tolerated and led to further regressions of residual tumor
[3]; 4×45 μg
  effect on tumors, one treatment cycle: rapidly regressed all tumors
[3]; second cycle about 2 months after the end of the first cycle
  effect of second treatment cycle: complete regression of all but one
[3]; single bolus protein dose
  minimum effective dose: 2.25 mg/kg
[3]; single bolus protein dose 2.25 mg/kg
  mean tumor volume (mTV) on day 21: 0.567±0.179 cm^3
[3]; single bolus protein dose 4.5 mg/kg
  mean tumor volume (mTV) on day 21: 0.264±0.087 cm^3
[3]; single bolus protein dose 9 mg/kg
  mean tumor volume (mTV) on day 21: 0.211±0.042 cm^3
[3]; single dose
  minimum single dose for significant survival benefit compared to saline control: 45 µg
  single dose giving maximum effect on tumor growth: ≥ 90 µg
[3]; single dose of 180 μg
  mice alive at day 94: 78 of 9
[4]
  cytotoxicity: cytotoxic
